Patent publication US20060079453A1, “Hla binding peptides and their uses” (priority 2002, published 2006)
No end group written: not given here.

Experiments:
Experiment in all cases: biochemical
HLA-B*5301 = HLA-B*5301 (Homo sapiens, UniProt P01889, A329T/A93T/A95T/C349S/D201E/D98Y/E176V/E187L/E204Q/E69T/G107R/I218V/K202T/L105A/L119I/N104I/Q94N/R106L/R155S/R180L/S101N/S121R/S35A/S48A/T118I/V127L/V306I/V36M/Y140S/Y91F); type: binding; conditions: B*5301 binding affinity (IC50)
HLA-B*5101 = HLA-B*5101 (Homo sapiens, UniProt P01889, A329T/A93T/A95T/C349S/D138N/D201E/D98Y/E187L/E204Q/E69T/G107R/I218V/K202T/L105A/L119W/N104I/Q94N/R106L/R155S/R180L/S101N/S121T/S35A/S48A/V306I/V36M/Y195H/Y91F); conditions: B*5101 binding affinity (IC50)
HLA-B*5401 = HLA-B*5401 (Homo sapiens, UniProt P01889, A329T/C349S/D138N/D201E/E176V/E187T/E204Q/E69G/I76V/K202T/L119W/R155S/R180L/S121T/S35A/S48A/V127L/V306I/V36M/Y140L); type: binding; conditions: B*5401 binding affinity (IC50)
HLA-B*0702 = HLA-B*0702 (Homo sapiens, UniProt P01889); type: binding; conditions: B*0702 binding affinity (IC50)
HLA-B*3501 = HLA-B*3501 (Homo sapiens, UniProt P01889, A329T/A93T/A95T/C349S/D201E/D98Y/E176V/E187L/E204Q/E69T/I218V/K202T/L119I/Q94N/R155S/R180L/S121R/S35A/S48A/T118I/V127L/V306I/V36M/Y140S/Y91F); conditions: B*3501 binding affinity (IC50)
H-2Ld = H-2Ld (Mus musculus, UniProt P01897); type: binding, murine; conditions: Ld
Sequence of H-2Ld (P01897 25-362): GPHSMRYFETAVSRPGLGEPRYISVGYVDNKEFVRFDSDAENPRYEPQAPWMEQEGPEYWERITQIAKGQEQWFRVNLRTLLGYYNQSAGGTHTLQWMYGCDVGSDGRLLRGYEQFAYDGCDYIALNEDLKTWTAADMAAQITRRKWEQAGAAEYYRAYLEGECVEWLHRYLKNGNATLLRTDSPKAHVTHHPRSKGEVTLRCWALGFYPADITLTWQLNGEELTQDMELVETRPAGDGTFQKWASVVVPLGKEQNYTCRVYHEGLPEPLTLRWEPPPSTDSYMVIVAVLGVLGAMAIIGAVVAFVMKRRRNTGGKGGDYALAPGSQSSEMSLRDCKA
Sequence of H-2Ld (P61769 21-119, further chain): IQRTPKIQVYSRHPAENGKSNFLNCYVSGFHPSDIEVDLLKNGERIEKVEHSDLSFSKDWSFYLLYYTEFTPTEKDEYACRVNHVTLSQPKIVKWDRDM

H-2Kk = H-2Kk (Mus musculus, UniProt P04223); type: binding, murine
Sequence of H-2Kk (P04223 22-369): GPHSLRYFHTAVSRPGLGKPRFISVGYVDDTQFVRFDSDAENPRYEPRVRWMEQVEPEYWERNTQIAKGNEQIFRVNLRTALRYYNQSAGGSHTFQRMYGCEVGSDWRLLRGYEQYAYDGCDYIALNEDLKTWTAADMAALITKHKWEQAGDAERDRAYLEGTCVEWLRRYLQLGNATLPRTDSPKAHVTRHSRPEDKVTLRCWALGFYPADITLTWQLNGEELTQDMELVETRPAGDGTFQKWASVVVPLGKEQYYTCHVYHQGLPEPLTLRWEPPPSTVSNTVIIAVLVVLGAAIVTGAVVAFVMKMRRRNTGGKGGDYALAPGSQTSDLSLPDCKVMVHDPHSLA
Sequence of H-2Kk (P61769 21-119, further chain): as the sequence (P61769 21-119, further chain) above

HLA-B*4402 = HLA-B*4402 (Homo sapiens, UniProt P01889, A223V/A65T/A93T/A95T/D201E/D98Y/E176V/E187L/E204Q/E69K/G107R/H137Y/K202T/L105A/L119I/N104T/N87E/Q56L/Q94N/R106L/R155S/R180D/S101N/S121R/S35A/S48T/T118I/V36M/W191S/Y140D/Y91S); type: binding; conditions: B*4402
HLA-B*4002 = HLA-B*4002 (Homo sapiens, UniProt P01889, A65T/A93T/A95T/D138N/D201E/D98Y/E176V/E204Q/E69K/K202T/N87E/Q56L/Q94N/R180L/S48T/Y33H/Y91S); type: binding; conditions: B*4002
HLA-B*1801 = HLA-B*1801 (Homo sapiens, UniProt P01889, A329T/A93T/A95T/C349S/D201E/D54G/D98Y/E176V/E187T/E204Q/E69T/K202T/Q94N/R155S/R180L/S121R/V306I/Y140S/Y195H/Y33H/Y91S); type: binding; conditions: B*1801
HLA-B*4501 = HLA-B*4501 (Homo sapiens, UniProt P01889, A329T/A65T/A93T/A95T/C349S/D138N/D201E/D98Y/E176V/E187L/E204Q/E69K/H137Y/K202T/L119W/N87E/Q56L/Q94N/R155S/R180D/S121R/S35A/S48T/V127L/V306I/V36M/W191S/Y140L/Y33H/Y91S); type: binding; conditions: B*4501
[1] = target: HLA-DQ DQA1*0301/B*0302 (DQ8) (Homo sapiens, UniProt P01909+P01920, A209T/A45G/C70Q/D89A/DUP78-78/E183D/E77G/F237L/G63E/H199R/I129T/K197E/L178F/L74F/L98V/Q57E/Q76R/S185I/S97I/T217I/T49S/V73L/Y58L)
H-2 Db = H-2 Db (Mus musculus, UniProt P01899); type: binding, murine; conditions: Db
Sequence of H-2 Db (P61769 21-119): as the sequence (P61769 21-119, further chain) above
Sequence of H-2 Db (P01899 25-362): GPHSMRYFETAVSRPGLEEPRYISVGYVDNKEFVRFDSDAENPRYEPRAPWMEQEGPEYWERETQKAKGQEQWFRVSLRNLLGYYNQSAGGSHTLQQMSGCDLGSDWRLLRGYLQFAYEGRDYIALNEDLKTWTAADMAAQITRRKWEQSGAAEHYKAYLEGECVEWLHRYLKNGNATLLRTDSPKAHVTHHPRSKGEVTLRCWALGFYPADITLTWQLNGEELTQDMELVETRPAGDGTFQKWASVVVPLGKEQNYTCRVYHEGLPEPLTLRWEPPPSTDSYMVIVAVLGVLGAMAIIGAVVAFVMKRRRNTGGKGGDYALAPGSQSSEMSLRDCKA

Compound | IC50 (HLA-B*5301) | IC50 (HLA-B*5101) | IC50 (HLA-B*5401) | IC50 (HLA-B*0702) | IC50 (HLA-B*3501) | IC50 (H-2Ld) | other results
CC(C)C[C@H](NC(=O)[C@H](Cc1c[nH]cn1)NC(=O)[C@H](CCCNC(=N)N)NC(=O)[C@H](CCC(N)=O)NC(=O)[C@H](CCCCN)NC(=O)[C@H](CCC(=O)O)NC(=O)[C@H](CCC(=O)O)NC(=O)[C@@H]1CCCN1C(=O)[C@@H](N)CS)C(=O)O | > 109000 nM | > 35500 nM | > 76900 nM | 10 nM | > 52600 nM | – | –
CC(C)C[C@H](NC(=O)[C@@H]1CCCN1C(=O)[C@@H](NC(=O)[C@H](CCC(N)=O)NC(=O)[C@@H]1CCCN1C(=O)[C@H](CCCNC(=N)N)NC(=O)[C@@H](NC(=O)[C@@H]1CCCN1C(=O)[C@@H](N)Cc1ccccc1)C(C)C)C(C)C)C(=O)O | 49 nM | 18 nM | 21 nM | 17 nM | 3.8 nM | – | –
CSCC[C@H](NC(=O)[C@@H](NC(=O)[C@H](C)NC(=O)[C@H](Cc1ccccc1)NC(=O)[C@H](CC(N)=O)NC(=O)[C@H](Cc1ccc(O)cc1)NC(=O)[C@@H](NC(=O)[C@H](C)NC(=O)[C@@H](N)CCCCN)C(C)C)[C@@H](C)O)C(=O)O | – | – | – | – | – | > 27000 nM | –
N=C(N)NCCC[C@H](NC(=O)[C@H](CCC(N)=O)NC(=O)[C@@H]1CCCN1C(=O)[C@@H](N)CCC(N)=O)C(=O)NCC(=O)N[C@@H](Cc1ccc(O)cc1)C(=O)N[C@@H](CCC(=O)O)C(=O)N[C@@H](CC(N)=O)C(=O)N[C@@H](Cc1ccccc1)C(=O)O | – | – | – | – | – | 319 nM | –
CC(C)C[C@H](NC(=O)[C@H](C)NC(=O)[C@@H](NC(=O)[C@H](CC(C)C)NC(=O)[C@H](C)NC(=O)[C@@H](NC(=O)[C@@H](NC(=O)[C@H](CCCNC(=N)N)NC(=O)[C@@H]1CCCN1C(=O)[C@H](C)N)[C@@H](C)O)C(C)C)[C@@H](C)O)C(=O)O [APRTVALTAL] | 61600 nM | 14600 nM | 16800 nM | 12 nM | 4350 nM | – | –
APCNFFTSA | > 22400 nM | – | 0.61 nM | 43 nM | 8090 nM | – | –
CPTVQASKL | 1860 nM | 448 nM | 21600 nM | 3250 nM | 645 nM | – | –
EEKHEKKHV | – | – | – | – | – | – | IC50 (H-2Kk): 284 nM
FPGPGPGPL | 21000 nM | 2330 nM | 29900 nM | 1580 nM | 426 nM | – | –
FPLTFGWCFKI | 188 nM | 590 nM | – | 52600 nM | 4990 nM | – | –
FPLTFGWCI | 36 nM | 63 nM | 14 nM | 48000 nM | 164 nM | – | –
FPVGPGPGL | 32 nM | 138 nM | 246 nM | – | 14 nM | – | –
HETTYNSI | – | – | – | – | – | – | IC50 (HLA-B*4402): 616 nM; IC50 (HLA-B*4002): 336 nM; IC50 (HLA-B*1801): 1640 nM; IC50 (HLA-B*4501): 6610 nM; IC50 (H-2Kk): 1.8 nM
IDVWLGGLKENFLPY | – | – | – | – | – | – | IC50 [1]: > 2800 nM
IPQSLDSWTSL | – | – | – | – | – | 0.22 nM | –
KAVANFATM | – | – | – | – | – | 27000 nM | IC50 (H-2 Db): 1.2 nM
KAVYNAATM | – | – | – | – | – | > 27000 nM | IC50 (H-2 Db): 2 nM
KAVYNFAAM | – | – | – | – | – | 27000 nM | IC50 (H-2 Db): 4.4 nM
KAVYNYATM | – | – | – | – | – | > 27000 nM | IC50 (H-2 Db): 2.1 nM
LPPLERLTI | 2620 nM | 359 nM | 11200 nM | 24400 nM | 13400 nM | – | –
NEEPSDKHI | – | – | – | – | – | – | IC50 (H-2Kk): 40 nM
